# Assay results from ChEMBL document CHEMBL1201862, “PubChem BioAssay data set” (2004).
# Active and inactive are the calls of the source.
# Legend:
# [1] = molecular target: Glucose-6-phosphate 1-dehydrogenase (Homo sapiens, UniProt P11413); experiment: human G6PD enzyme inhibitors, dose response, selectivity assay for P. falciparum G6PD inhibitor project, biochemical, fluorescence (AID 504792); type: functional
# [2] = inhibitors of HIV Env-driven cell fusion, dose response, cherry-pick (AID 652057); type: functional, cell-based
# [3] = inhibitors of clade B AD8 Env fusion, dose response, cell-based, cherry-pick (AID 652062); type: functional;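 note: luciferase signal from cell-cell fusion driven by HIV-1 clade B AD8 Env; potency is for inhibitors of fusion seen as a drop in luminescence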
# H9c2 = experiment: cells; type: functional, cell-based; conditions: Rattus norvegicus, H9c2, Myocardium;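 note: confirmatory concentration-response retest of ultra-high-throughput screening hits for modulation of myocardial damage; cell death induced by hydrogen peroxide oxidative stress; compound pretreatment for 60 min then peroxide exposure for 2 h; potency is for protecting the cells against peroxide damage rather than for killing them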
# [4] = molecular target: Protein-tyrosine kinase 2-beta (Homo sapiens, UniProt Q14289);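 note: potency of inhibitors of PYK2 kinase phosphorylation of poly-GT substrate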
# HEK293 [5] = experiment: NOD1 signaling inhibitors, primary screen, cell-based, luminescence, uHTS (AID 1578); type: functional; conditions: Homo sapiens
# HEK293 [6] = experiment: cells; type: functional, cell-based; conditions: Homo sapiens
# HEK293 [7] = experiment: cells; type: functional, cell-based; conditions: Homo sapiens; remark: listed apart in the source
# HEK293 [8] = experiment: NOD2 signaling inhibitors in MDP-stimulated cells, cell-based, uHTS, luminescence (AID 2001); type: functional; conditions: Homo sapiens
# [9] = LGR2 antagonists, dose response, cell-based, HEK293, CRE-luciferase reporter, cherry pick, set 2 (AID 743343); type: functional;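 note: transfected cells were stimulated with diluted bursicon conditioned medium after compound addition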
# [10] = MC4R antagonists, dose response, counter-screen for LGR2 antagonist project, cell-based, plate reader, cherry pick (AID 743444); type: functional;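 note: transfected HEK 293 cells stimulated with alpha-MSH peptide; potency of inhibitors of the alpha-MSH evoked signal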
# [11] = molecular target: T1, Short transient receptor potential channel 4 (Mus musculus, UniProt Q9QUQ5); experiment: mouse TRPC4 channel activators, dose response, cell-based, HEK293 TRPC4/mu-opioid, Fluo-4 calcium (AID 434937); type: functional
# T1 sequence (Q9QUQ5 whole entry): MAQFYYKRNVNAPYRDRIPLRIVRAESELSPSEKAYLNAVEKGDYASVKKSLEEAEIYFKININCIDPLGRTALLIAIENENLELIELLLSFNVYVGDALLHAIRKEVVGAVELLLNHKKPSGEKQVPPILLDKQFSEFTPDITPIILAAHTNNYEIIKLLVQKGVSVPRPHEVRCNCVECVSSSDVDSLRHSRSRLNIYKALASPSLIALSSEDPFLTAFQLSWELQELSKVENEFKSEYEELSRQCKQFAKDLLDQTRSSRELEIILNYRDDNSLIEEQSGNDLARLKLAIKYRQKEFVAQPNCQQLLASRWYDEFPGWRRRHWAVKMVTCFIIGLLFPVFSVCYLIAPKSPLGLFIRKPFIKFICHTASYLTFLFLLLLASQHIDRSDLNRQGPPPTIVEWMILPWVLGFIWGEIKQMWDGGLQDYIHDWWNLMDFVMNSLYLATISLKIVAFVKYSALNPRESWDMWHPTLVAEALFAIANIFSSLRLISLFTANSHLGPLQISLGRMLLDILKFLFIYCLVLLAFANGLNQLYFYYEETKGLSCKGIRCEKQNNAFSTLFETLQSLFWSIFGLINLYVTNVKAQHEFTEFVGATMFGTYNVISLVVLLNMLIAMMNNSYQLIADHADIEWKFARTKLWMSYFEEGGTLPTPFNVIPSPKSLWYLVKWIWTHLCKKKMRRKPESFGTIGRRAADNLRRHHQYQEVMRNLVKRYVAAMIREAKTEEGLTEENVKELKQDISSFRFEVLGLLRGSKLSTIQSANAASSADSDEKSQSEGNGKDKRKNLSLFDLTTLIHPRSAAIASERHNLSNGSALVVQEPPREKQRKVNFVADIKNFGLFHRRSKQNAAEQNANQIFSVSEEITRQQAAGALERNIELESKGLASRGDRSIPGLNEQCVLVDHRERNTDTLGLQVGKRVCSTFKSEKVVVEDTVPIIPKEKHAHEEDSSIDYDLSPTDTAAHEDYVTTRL
# [12] = molecular target: T2, High affinity choline transporter 1 (Homo sapiens, UniProt Q9GZV3); experiment: CHT inhibitors, dose response, cell-based, 5-point CRC, membrane potential dye (AID 504840); type: functional
# T2 sequence (Q9GZV3 whole entry): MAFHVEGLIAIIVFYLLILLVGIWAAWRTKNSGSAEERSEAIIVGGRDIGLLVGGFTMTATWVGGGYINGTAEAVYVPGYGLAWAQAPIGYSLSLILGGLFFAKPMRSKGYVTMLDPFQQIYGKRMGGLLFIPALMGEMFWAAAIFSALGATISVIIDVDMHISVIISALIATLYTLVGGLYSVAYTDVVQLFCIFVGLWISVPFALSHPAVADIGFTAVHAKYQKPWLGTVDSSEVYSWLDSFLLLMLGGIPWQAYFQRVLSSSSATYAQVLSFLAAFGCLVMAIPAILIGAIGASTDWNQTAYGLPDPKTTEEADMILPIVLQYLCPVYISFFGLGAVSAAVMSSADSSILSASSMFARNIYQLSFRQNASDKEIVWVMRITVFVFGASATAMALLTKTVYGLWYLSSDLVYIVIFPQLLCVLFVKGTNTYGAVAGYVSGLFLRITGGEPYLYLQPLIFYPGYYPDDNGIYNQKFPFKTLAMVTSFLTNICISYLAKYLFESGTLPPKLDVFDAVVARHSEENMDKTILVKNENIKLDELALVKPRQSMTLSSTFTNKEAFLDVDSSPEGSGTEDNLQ
# Cytochrome P450 2C9 = Cytochrome P450 2C9 (Homo sapiens, UniProt P11712)
# [13] = inhibitors of firefly luciferase expression or activity, dose response, H4 neuroglioma cells, luminescence (AID 1990); type: functional, cell-based
# [14] = Luminescence Cell-Based Dose Response HTS to Identify Inhibitors of 5'UTR Stem-Loop Driven Prion Protein mRNA Translation in H4 Neuroglioblastoma Cells. [Related pubchem assays: 1827 (Project Summary), 1813 (Primary HTS)]; type: functional
# [15] = inhibitors of SNCA 5'UTR-driven reporter translation, confirmation, H4 neuroglioma cells, luminescence (AID 1988); type: functional, cell-based
# [16] = molecular target: T3, Replicative DNA helicase DnaB (Mycobacterium tuberculosis, UniProt P9WMR3); experiment: DnaB intein splicing inhibitors, dose response, biochemical, cell-free fluorescence (AID 449749); type: functional
# T3 sequence (P9WMR3 whole entry): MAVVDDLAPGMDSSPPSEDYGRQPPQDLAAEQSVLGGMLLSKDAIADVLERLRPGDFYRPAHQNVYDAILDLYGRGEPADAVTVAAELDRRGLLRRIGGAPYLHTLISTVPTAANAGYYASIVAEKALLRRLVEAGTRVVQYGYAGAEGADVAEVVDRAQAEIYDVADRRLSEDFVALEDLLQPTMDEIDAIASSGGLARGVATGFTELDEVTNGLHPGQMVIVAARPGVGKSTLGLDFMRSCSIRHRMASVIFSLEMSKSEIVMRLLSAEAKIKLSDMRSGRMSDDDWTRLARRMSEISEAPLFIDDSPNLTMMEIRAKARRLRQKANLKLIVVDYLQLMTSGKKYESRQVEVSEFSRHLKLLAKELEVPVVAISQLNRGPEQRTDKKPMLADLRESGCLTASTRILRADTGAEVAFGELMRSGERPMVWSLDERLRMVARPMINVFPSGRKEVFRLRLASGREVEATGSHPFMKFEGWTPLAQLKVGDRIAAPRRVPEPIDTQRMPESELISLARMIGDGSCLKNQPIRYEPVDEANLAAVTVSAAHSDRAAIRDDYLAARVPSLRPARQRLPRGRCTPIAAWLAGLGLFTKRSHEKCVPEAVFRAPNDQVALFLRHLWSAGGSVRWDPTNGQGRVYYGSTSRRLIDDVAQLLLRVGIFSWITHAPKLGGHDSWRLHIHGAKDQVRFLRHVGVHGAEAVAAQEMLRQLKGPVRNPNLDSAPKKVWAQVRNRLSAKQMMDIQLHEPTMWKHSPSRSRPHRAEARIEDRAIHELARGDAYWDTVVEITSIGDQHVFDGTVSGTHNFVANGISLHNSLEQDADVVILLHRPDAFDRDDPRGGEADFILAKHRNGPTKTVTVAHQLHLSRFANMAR
# Protein RecA = molecular target: T4, Protein RecA (Mycobacterium tuberculosis, UniProt P9WHJ3); experiment: Fluorescence Cell-Free Homogeneous Dose Retest to Identify Inhibitors of RecA-Intein Splicing Activity. [Related pubchem assays (depositor defined):AID2097, AID2223, AID489010, AID492950]; type: functional
# T4 sequence (P9WHJ3 whole entry): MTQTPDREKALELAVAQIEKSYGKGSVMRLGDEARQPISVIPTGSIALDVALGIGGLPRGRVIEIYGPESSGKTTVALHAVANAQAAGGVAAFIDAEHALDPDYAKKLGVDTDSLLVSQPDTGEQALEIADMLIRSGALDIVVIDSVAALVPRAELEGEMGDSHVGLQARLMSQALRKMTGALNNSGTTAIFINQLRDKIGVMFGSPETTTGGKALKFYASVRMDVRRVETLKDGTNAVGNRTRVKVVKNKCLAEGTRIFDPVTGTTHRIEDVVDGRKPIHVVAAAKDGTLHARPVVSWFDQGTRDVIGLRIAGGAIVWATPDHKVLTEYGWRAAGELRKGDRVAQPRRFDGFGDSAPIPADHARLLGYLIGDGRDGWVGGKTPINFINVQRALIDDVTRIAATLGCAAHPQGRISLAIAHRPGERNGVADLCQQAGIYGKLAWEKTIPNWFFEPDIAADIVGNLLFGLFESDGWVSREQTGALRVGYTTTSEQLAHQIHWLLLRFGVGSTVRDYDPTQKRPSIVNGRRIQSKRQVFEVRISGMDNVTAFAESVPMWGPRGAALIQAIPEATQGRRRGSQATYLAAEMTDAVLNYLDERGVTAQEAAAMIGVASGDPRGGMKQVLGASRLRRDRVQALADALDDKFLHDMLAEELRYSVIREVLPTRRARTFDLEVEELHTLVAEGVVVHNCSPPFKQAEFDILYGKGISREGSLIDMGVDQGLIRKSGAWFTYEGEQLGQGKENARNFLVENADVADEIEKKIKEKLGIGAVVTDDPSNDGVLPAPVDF
# [17] = THP-1 cell cytotoxicity, dose response, cytotoxicity control for Vif-APOBEC3G degradation inhibitor project, THP-1 cells (AID 1117359); type: functional; conditions: Human immunodeficiency virus 1, THP-1
# [18] = Shn3 3'UTR reporter inhibitors, dose response, cell-based, Clone20 osteoblasts, firefly luciferase, cherry-picked (AID 624132); type: functional;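 note: firefly luciferase luminescence from reporter carrying the Shn3 3'UTR in osteoblasts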
# [19] = HepG2 cell cytotoxicity, dose response, cytotoxicity control for Shn3 inhibitor project, CellTiter-Glo, cherry-picked (AID 624134); type: functional, cell-based
# Large T antigen = Large T antigen (Simian virus 40, UniProt P03070); type: functional, Betapolyomavirus macacae;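 note: Confirmatory-stage PubChem screen for compounds that inhibit SV40 T antigen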
# Sequence of Large T antigen (P03070 whole entry): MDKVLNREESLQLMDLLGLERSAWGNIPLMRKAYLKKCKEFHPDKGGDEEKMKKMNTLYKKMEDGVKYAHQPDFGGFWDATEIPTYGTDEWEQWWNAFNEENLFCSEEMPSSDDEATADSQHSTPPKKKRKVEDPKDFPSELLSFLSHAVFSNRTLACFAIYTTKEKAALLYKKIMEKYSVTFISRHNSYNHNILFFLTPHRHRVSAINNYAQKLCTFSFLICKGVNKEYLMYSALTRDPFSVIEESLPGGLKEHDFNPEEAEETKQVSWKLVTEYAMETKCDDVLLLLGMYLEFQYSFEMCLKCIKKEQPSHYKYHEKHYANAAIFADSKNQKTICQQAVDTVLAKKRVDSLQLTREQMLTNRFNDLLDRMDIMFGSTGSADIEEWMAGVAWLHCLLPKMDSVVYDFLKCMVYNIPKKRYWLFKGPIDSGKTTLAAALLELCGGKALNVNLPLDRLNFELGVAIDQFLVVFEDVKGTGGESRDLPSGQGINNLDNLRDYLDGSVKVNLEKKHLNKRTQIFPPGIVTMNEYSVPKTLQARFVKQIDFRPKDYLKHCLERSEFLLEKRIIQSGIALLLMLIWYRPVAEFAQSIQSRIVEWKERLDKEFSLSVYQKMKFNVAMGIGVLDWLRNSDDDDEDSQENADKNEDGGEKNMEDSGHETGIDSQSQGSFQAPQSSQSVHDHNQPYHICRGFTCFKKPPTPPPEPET
# Sequence of Glucose-6-phosphate 1-dehydrogenase (P11413 whole entry, the tested form may be a part): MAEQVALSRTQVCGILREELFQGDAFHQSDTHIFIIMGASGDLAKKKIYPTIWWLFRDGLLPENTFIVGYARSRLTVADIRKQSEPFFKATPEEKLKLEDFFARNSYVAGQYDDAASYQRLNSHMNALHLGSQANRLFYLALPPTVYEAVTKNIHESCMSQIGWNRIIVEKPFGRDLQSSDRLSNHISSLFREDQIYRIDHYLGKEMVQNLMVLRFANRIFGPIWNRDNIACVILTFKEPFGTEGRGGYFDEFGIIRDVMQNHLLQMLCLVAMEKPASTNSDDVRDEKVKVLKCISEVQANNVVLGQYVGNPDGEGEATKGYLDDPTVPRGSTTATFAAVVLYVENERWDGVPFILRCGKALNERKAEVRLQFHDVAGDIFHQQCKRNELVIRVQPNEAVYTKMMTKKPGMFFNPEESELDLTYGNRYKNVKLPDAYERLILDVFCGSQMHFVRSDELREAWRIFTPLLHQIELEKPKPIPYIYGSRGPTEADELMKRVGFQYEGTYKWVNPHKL
# Sequence of Protein-tyrosine kinase 2-beta (Q14289 whole entry): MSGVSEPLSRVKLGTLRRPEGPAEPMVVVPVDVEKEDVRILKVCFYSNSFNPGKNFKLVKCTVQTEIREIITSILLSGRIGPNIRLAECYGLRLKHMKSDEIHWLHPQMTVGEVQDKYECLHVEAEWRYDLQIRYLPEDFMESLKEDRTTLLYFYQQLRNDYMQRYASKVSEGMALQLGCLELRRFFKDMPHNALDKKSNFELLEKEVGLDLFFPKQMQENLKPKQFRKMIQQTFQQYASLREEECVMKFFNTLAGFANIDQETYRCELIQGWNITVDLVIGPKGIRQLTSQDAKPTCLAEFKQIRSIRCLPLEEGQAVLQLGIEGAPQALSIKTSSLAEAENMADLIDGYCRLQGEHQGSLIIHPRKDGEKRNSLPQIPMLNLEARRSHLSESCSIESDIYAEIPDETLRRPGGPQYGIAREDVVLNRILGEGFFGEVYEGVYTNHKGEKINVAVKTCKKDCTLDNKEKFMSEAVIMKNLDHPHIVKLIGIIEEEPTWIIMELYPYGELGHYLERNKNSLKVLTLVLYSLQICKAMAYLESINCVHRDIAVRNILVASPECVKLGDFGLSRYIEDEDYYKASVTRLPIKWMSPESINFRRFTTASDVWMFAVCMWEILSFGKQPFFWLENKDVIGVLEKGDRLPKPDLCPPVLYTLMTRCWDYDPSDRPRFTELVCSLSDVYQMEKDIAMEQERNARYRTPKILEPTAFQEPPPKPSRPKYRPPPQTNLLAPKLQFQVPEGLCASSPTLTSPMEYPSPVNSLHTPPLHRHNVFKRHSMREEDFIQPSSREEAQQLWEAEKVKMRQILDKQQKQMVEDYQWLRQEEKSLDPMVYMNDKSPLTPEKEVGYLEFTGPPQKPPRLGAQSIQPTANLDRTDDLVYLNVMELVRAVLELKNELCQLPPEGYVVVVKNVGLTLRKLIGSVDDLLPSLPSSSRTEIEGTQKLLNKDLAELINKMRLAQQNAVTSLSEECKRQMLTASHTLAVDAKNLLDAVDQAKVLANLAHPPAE
# Sequence of Cytochrome P450 2C9 (P11712 whole entry): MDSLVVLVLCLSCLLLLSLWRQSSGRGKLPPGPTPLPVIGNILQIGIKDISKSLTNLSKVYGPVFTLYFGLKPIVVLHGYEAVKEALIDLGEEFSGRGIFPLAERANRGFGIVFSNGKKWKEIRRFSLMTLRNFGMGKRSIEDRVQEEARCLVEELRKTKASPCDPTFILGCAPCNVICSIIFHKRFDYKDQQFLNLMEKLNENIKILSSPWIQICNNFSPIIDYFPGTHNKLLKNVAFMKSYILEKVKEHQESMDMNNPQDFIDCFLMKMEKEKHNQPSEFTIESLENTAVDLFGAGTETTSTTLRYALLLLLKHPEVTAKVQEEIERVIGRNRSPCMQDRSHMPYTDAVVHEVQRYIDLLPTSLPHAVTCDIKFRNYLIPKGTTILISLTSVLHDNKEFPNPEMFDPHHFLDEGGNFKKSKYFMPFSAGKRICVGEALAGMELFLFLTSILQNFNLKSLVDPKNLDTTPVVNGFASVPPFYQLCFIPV
structure (smiles),measurement,setting,value
COc1cccc(C2(c3cccc(OC)c3)CC2C(=O)Nc2ccc(F)cc2)c1 (stereo unspecified),IC50,[1],> 80 µM (inactive)
N#Cc1ccc(CN2CCN(C(=O)CNC(=O)Cc3cccc4ccccc34)CC2)cc1,AC50,[2],57.1 µM (active)
same,AC50,[3],10.3 µM (active)
CCOC(=O)c1cccc(C2=C(CNC(=O)c3cccnc3)[C@H]3CC[C@@H](C2)N3Cc2ccccc2)c1,IC50,H9c2,35.3 µM (inactive)
COc1nnc(-c2ccc(N3CCCCC3)c(NC(C)=O)c2)c2ccccc12,IC50,[4],> 69.5 µM (not active)
Cc1nc(C)c(-c2ccc(SCC(=O)Nc3cccc(Cl)c3)nn2)s1,EC50,HEK293 [5],> 20 µM (inactive)
same,IC50,HEK293 [6],4.18 µM (active)
same,IC50,HEK293 [7],> 20 µM (inactive)
same,IC50,HEK293 [8],4.58 µM (active)
COc1ccc(NS(=O)(=O)c2ccc(N/N=C(\C)c3ccncc3)c([N+](=O)[O-])c2)cc1,EC50,HEK293 [5],4.33 µM (active)
same,IC50,HEK293 [6],3.9 µM (active)
same,IC50,HEK293 [7],17.8 µM (active)
same,IC50,HEK293 [8],2.11 µM (active)
COCCCNc1ccn2nc(-c3ccccc3)cc2n1,AC50,[9],7.19 µM (active)
same,AC50,[10],6.82 µM (active)
CC1(C)CC2CC(C)(CN2C(=O)COC(=O)c2nnc(O)c3ccccc23)C1 (stereo unspecified),IC50,H9c2,10.7 µM (active)
COc1ccc2c(c1OC)C(=O)N1c3ccccc3C(=O)N(c3ccccc3)C21 (stereo unspecified),IC50,H9c2,> 79 µM (inactive)
CCC(=O)N1CCc2cc(Br)cc(S(=O)(=O)NCCCN(CC)Cc3ccccc3)c21,EC50,[11],0.0133 µM (active)
Cc1ccc(C(=O)N/C(=C/C=C/c2ccccc2)C(=O)NCc2ccco2)cc1,IC50,[12],17.4 µM (active)
same,AC50,Cytochrome P450 2C9,10 µM (inconclusive)
C[C@@H]1CN([C@@H](C)CO)C(=O)c2cccc(NS(=O)(=O)c3cccs3)c2O[C@@H]1CN(C)Cc1ccc(C(F)(F)F)cc1,AC50,[2],2.04 µM (active)
same,AC50,[3],16.7 µM (active)
Cc1ccc2c(c1)c(CC(=O)Nc1ccc(C)c(F)c1)c(C(=O)O)n2C,IC50,[12],12.6 µM (active)
O=C(CNc1ccc2c(c1)OCO2)N/N=C\c1cn(Cc2ccccc2)c2ccccc12,EC50,[13],9.09 µM (active)
same,EC50,[14],10.5 µM (active)
same,EC50,[15],6.5 µM (active)
same,IC50,[1],> 80 µM (inactive)
CCn1c(N2CCN(Cc3ccc([N+](=O)[O-])cc3)CC2)nc2ccccc21,EC50,[11],0.133 µM (active)
CC(C)CC(NC(=O)CCl)c1ccccc1 (stereo unspecified),AC50,[16],320 µM (active)
same,EC50,Protein RecA,4.29 µM (active)
same,CC50,[17],> 40 µM (active)
Cc1ccc(C(=O)NC2CCCCC2)cc1S(=O)(=O)N1CCCC1,IC50,[12],1.26 µM (active)
C=CCc1c(C)nc(S)c(C#N)c1C,IC50,[1],> 80 µM (inactive)
O=C(c1ccc2c3c(cccc13)CC2)C1CCCN(CC2CC2)C1 (stereo unspecified),EC50,[11],0.841 µM (active)
CSc1cccc(NS(=O)(=O)c2ccc3c(c2)CCN3C(C)=O)c1,EC50,HEK293 [5],2.42 µM (active)
same,IC50,HEK293 [6],10.8 µM (active)
same,IC50,HEK293 [7],> 20 µM (inactive)
same,IC50,HEK293 [8],7.07 µM (active)
same,AC50,[18],1.49 µM (active)
same,AC50,[19],2.79 µM (active)
O=[N+]([O-])c1ccc(N2CCNCC2)c(Cl)c1,EC50,[11],0.596 µM (active)
Cc1cc2cc3c(N)[nH]nc3nc2cc1C,IC50,Large T antigen,30.3 µM (active)
same,IC50,[4],> 69.5 µM (not active)
CN(C)c1ccc(NC(=S)N2CCN(c3ncc(C(F)(F)F)cc3Cl)CC2)cc1,EC50,[11],2.66 µM (active)
COc1cc(C2Nc3ccc4ncccc4c3C3=C2C(=O)CC(C)(C)C3)cc(OC)c1O (stereo unspecified),IC50,[4],16.4 µM (not active)
O=c1[nH]c2ccccc2c2ccccc12,IC50,H9c2,> 79 µM (inactive)
